Our source for the Kd values is patent US20260297134A1, “CYCLIC PEPTIDES AS PET IMAGING AGENTS OF GRANZYME B” (Merck Sharp & Dohme LLC, priority 2023, published 2026).

Bridge positions count the residues as written; N and C are the ends. Square brackets hold non-standard residues; d marks the D form. Peptide text beside a SMILES is read from it. * marks the point of attachment. X1 = O=C(O)CN1CCN(CC(=O)O)CC(Cc2ccc(NC(=S)*)cc2)N(CC(=O)O)CC1; NMeF = CN[C@@H](Cc1ccccc1)C(=O)O; NMeA = CN[C@@H](C)C(=O)O

human Granzyme B (hGranzyme B), sequence (P10144 21-247): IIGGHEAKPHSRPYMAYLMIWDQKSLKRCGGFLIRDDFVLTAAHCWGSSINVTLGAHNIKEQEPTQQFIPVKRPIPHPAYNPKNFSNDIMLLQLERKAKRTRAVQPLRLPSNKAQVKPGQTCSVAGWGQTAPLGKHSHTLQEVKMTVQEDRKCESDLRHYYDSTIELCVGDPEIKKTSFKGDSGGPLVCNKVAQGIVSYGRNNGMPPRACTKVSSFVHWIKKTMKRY

The target of this test is human Granzyme B (hGranzyme B) (Homo sapiens, UniProt P10144). In words: Surface Plasmon Resonance (SPR) binding to human Granzyme B. Particulars: Table 8, 25° C. As to the method:
All reagents and solvents were purchased from commercial sources and used “as is” unless otherwise noted. Reaction progress and synthetic intermediate analysis were assessed by LCMS (UV detection with ESI, APCI, or other mass detection) when applicable using a MeCN/water gradient with either TFA, formic acid, or NH4HCO3 modifier. Silica gel and reverse-phase flash column chromatography were conducted with commercially available pre-packed columns. Reverse-phase preparative HPLC purification was performed on preparative HPLC instruments with UV and MS detection using a MeCN/water gradient with either TFA, formic acid, or NH4OH modifier. Unless otherwise noted, all KD data presented in tables refers to the surface plasmon resonance assay that is described in the Biological Assay section.
The kinetics of test peptide binding to human Granzyme B (hGranzyme B) was determined by SPR. All experiments were performed at 25° C. using the Biacore 8k+ instrument (Cytiva, Marlborough, MA). The Biacore 8k+ Insight Evaluation Software Version 3.0 was used to fit the data with a 1:1 binding model to determine the association rate constant ka (M^−1s^−1, where “M” equals molar and “s” equals seconds) and the dissociation rate constant kd (s^−1). These rate constants were used to calculate the equilibrium dissociation constant, KD (M)=kd/ka. To measure the binding kinetics of peptides of interest, surfaces were prepared by a capture method to a Series S Streptavidin (SA) chip using a 1×HBS-EP+ running buffer (Cytiva). hGranzyme B was diluted to 10 μg/mL in 1×HBS-EP+ and flowed over spot 2 of each flow cell on the chip at a flow rate of 10 μl/min for 20 s to achieve a level of capture of ~1100 RU. An unmodified spot 1 of each flow cell was used as a matrix binding control or reference surface. Binding kinetics were measured using single cycle kinetics at 25° C. by injecting 5 concentrations with 3-fold serial dilutions of test peptides from […] to 1 μM. Compound dilutions were performed manually in a running buffer containing 1×HBS-EP+(Cytiva), and a final concentration of 2% DMSO. The interaction analyses over hGranzyme B, were performed using a 120 s association time and a 900 s dissociation time. All experiments were conducted at a flow rate of […] with a data collection rate of 10 Hz.
Peptide dilution series included 2 zero concentration points (no compound) which were averaged and subtracted from the peptide concentration injection as DMSO control responses. Binding data acquired from the reference surface (matrix binding control) were subtracted from the binding data for hGranzyme B surface on the chip to determine specific binding. Next, the association phase data were solvent corrected to account for any signal fluctuation throughout the experiment due to subtle DMSO concentration differences. Corrected response data were analyzed using the Biacore 8k+ Evaluation Software Version 3.0 according to the manufacturer. SPR data for representative compounds of the disclosure are found in Table 8.
Turning to `CC(C)[C@@H]1NC(=O)[C@H](CC(=O)O)NC(=O)[C@H](Cc2ccc(O)cc2)NC(=O)[C@H](Cc2ccc(O)cc2)NC(=O)[C@H](Cc2ccccc2)N(C)C(=O)[C@H](Cc2ccccc2)N(C)C(=O)[C@H](Cc2ccccc2)NC(=O)CSC[C@@H](C(=O)NCC(=O)NCC(=O)N[C@@H](CCCCN)C(N)=O)NC(=O)[C@H](Cc2c[nH]cn2)NC(=O)[C@H](Cc2ccccc2)N(C)C(=O)[C@H](Cc2ccc(O)cc2)NC(=O)[C@H](C(C)C)NC(=O)[C@H](CC(=O)O)NC(=O)[C@H](C(C)C)NC(=O)[C@H](CC(=O)O)NC1=O` [Compound 2a, *F.NMeF.NMeF.Y.Y.D.V.D.V.D.V.Y.NMeF.H.*C.G.G.K-NH2] ({CH2CO}-F[NMeF][NMeF]YYDVDVDVY[NMeF]HCGGK-NH2; thioether N-15), binding was characterised by a dissociation constant (Kd) of 1.1 nM.
The result for `CC(C)[C@@H]1NC(=O)[C@H](CC(=O)O)NC(=O)[C@H](Cc2ccc(O)cc2)NC(=O)[C@H](C)NC(=O)[C@H](Cc2ccccc2)N(C)C(=O)[C@H](Cc2ccccc2)N(C)C(=O)[C@H](Cc2ccccc2)NC(=O)CSC[C@@H](C(=O)NCC(N)=O)NC(=O)[C@H](Cc2c[nH]cn2)NC(=O)[C@H](Cc2ccccc2)N(C)C(=O)[C@H](Cc2ccc(O)cc2)NC(=O)[C@H](C(C)C)NC(=O)[C@H](CC(=O)O)NC(=O)[C@H](C(C)C)NC(=O)[C@H](CC(=O)O)NC1=O` [Compound 23a, *F.NMeF.NMeF.A.Y.D.V.D.V.D.V.Y.NMeF.H.*C.G-NH2] ({CH2CO}-F[NMeF][NMeF]AYDVDVDVY[NMeF]HCG-NH2; thioether N-15) reads 752 nM; that for `CC(C)[C@@H]1NC(=O)[C@H](CC(=O)O)NC(=O)[C@H](Cc2ccc(O)cc2)NC(=O)[C@H](Cc2ccc(O)cc2)NC(=O)[C@H](C)N(C)C(=O)[C@H](Cc2ccccc2)N(C)C(=O)[C@H](Cc2ccccc2)NC(=O)CSC[C@@H](C(=O)NCC(N)=O)NC(=O)[C@H](Cc2c[nH]cn2)NC(=O)[C@H](Cc2ccccc2)N(C)C(=O)[C@H](Cc2ccc(O)cc2)NC(=O)[C@H](C(C)C)NC(=O)[C@H](CC(=O)O)NC(=O)[C@H](C(C)C)NC(=O)[C@H](CC(=O)O)NC1=O` [Compound 24a, *F.NMeF.NMeA.Y.Y.D.V.D.V.D.V.Y.NMeF.H.*C.G-NH2] ({CH2CO}-F[NMeF][NMeA]YYDVDVDVY[NMeF]HCG-NH2; thioether N-15), 5.4 nM.
In turn, `CC(C)[C@@H]1NC(=O)[C@H](CC(=O)O)NC(=O)[C@H](C)NC(=O)[C@H](Cc2ccc(O)cc2)NC(=O)[C@H](Cc2ccccc2)N(C)C(=O)[C@H](Cc2ccccc2)N(C)C(=O)[C@H](Cc2ccccc2)NC(=O)CSC[C@@H](C(=O)NCC(=O)N[C@@H](CCCCN)C(N)=O)NC(=O)[C@H](Cc2c[nH]cn2)NC(=O)[C@H](Cc2ccccc2)N(C)C(=O)[C@H](Cc2ccc(O)cc2)NC(=O)[C@H](C(C)C)NC(=O)[C@H](CC(=O)O)NC(=O)[C@H](C(C)C)NC(=O)[C@H](CC(=O)O)NC1=O` [Compound 10a, *F.NMeF.NMeF.Y.A.D.V.D.V.D.V.Y.NMeF.H.*C.G.K-NH2] ({CH2CO}-F[NMeF][NMeF]YADVDVDVY[NMeF]HCGK-NH2; thioether N-15) had a Kd of 1 nM.
`CC(C)[C@@H]1NC(=O)[C@H](CC(=O)O)NC(=O)[C@H](C)NC(=O)[C@H](Cc2ccc(O)cc2)NC(=O)[C@H](Cc2ccccc2)N(C)C(=O)[C@H](Cc2ccccc2)N(C)C(=O)[C@H](Cc2ccccc2)NC(=O)CSC[C@@H](C(=O)NCC(=O)N[C@@H](CCCCN)C(=O)N[C@@H](CCCCN)C(N)=O)NC(=O)[C@H](Cc2c[nH]cn2)NC(=O)[C@H](Cc2ccccc2)N(C)C(=O)[C@H](Cc2ccc(O)cc2)NC(=O)[C@H](C(C)C)NC(=O)[C@H](CC(=O)O)NC(=O)[C@H](C(C)C)NC(=O)[C@H](CC(=O)O)NC1=O` [Compound 11a, *F.NMeF.NMeF.Y.A.D.V.D.V.D.V.Y.NMeF.H.*C.G.K.K-NH2] ({CH2CO}-F[NMeF][NMeF]YADVDVDVY[NMeF]HCGKK-NH2; thioether N-15) had a Kd of 2.1 nM.
Under `CC(C)[C@@H]1NC(=O)[C@H](CC(=O)O)NC(=O)[C@H](Cc2ccc(O)cc2)NC(=O)[C@H](Cc2ccc(O)cc2)NC(=O)[C@H](Cc2ccccc2)N(C)C(=O)[C@H](Cc2ccccc2)N(C)C(=O)[C@H](Cc2ccccc2)NC(=O)CSC[C@@H](C(=O)NCC(=O)NCC(=O)N[C@@H](CCCCNC(=S)Nc2ccc(CC3CN(CC(=O)O)CCN(CC(=O)O)CCN3CC(=O)O)cc2)C(N)=O)NC(=O)[C@H](Cc2c[nH]cn2)NC(=O)[C@H](Cc2ccccc2)N(C)C(=O)[C@H](Cc2ccc(O)cc2)NC(=O)[C@H](C(C)C)NC(=O)[C@H](CC(=O)O)NC(=O)[C@H](C(C)C)NC(=O)[C@H](CC(=O)O)NC1=O` (stereo partly shown) [Compound 3a, *F.NMeF.NMeF.Y.Y.D.V.D.V.D.V.Y.NMeF.H.*C.G.G.K(NOTA)-NH2] ({CH2CO}-F[NMeF][NMeF]YYDVDVDVY[NMeF]HCGGK(X1)-NH2; thioether N-15) stands 1 nM; under `CC(C)[C@@H]1NC(=O)[C@H](CC(=O)O)NC(=O)[C@H](C)NC(=O)[C@H](CC(=O)O)NC(=O)[C@H](Cc2ccc(O)cc2)NC(=O)[C@H](Cc2ccc(O)cc2)NC(=O)[C@H](Cc2ccccc2)N(C)C(=O)[C@H](Cc2ccccc2)N(C)C(=O)[C@H](Cc2ccccc2)NC(=O)CSC[C@@H](C(=O)NCC(N)=O)NC(=O)[C@H](Cc2c[nH]cn2)NC(=O)[C@H](Cc2ccccc2)N(C)C(=O)[C@H](Cc2ccc(O)cc2)NC(=O)[C@H](C(C)C)NC(=O)[C@H](CC(=O)O)NC1=O` [Compound 20a, *F.NMeF.NMeF.Y.Y.D.A.D.V.D.V.Y.NMeF.H.*C.G-NH2] ({CH2CO}-F[NMeF][NMeF]YYDADVDVY[NMeF]HCG-NH2; thioether N-15), 288 nM; under `CC(C)[C@@H]1NC(=O)[C@H](CC(=O)O)NC(=O)[C@H](Cc2ccc(O)cc2)NC(=O)[C@H](Cc2ccc(O)cc2)NC(=O)[C@H](Cc2ccccc2)N(C)C(=O)[C@H](Cc2ccccc2)N(C)C(=O)[C@H](Cc2ccccc2)NC(=O)CSC[C@@H](C(=O)NCC(=O)N[C@@H](CCCCN)C(N)=O)NC(=O)[C@H](Cc2c[nH]cn2)NC(=O)[C@H](Cc2ccccc2)N(C)C(=O)[C@H](Cc2ccc(O)cc2)NC(=O)[C@H](C(C)C)NC(=O)[C@H](CC(=O)O)NC(=O)[C@H](C(C)C)NC(=O)[C@H](CC(=O)O)NC1=O` [Compound 12a, *F.NMeF.NMeF.Y.Y.D.V.D.V.D.V.Y.NMeF.H.*C.G.K-NH2] ({CH2CO}-F[NMeF][NMeF]YYDVDVDVY[NMeF]HCGK-NH2; thioether N-15), 2.6 nM.
The result for `CC(C)[C@@H]1NC(=O)[C@H](CC(=O)O)NC(=O)[C@H](Cc2ccc(O)cc2)NC(=O)[C@H](Cc2ccc(O)cc2)NC(=O)[C@H](Cc2ccccc2)N(C)C(=O)[C@H](Cc2ccccc2)N(C)C(=O)[C@H](Cc2ccccc2)NC(=O)CSC[C@@H](C(=O)NCC(=O)N[C@@H](CCCCN)C(=O)N[C@@H](CCCCN)C(N)=O)NC(=O)[C@H](Cc2c[nH]cn2)NC(=O)[C@H](Cc2ccccc2)N(C)C(=O)[C@H](Cc2ccc(O)cc2)NC(=O)[C@H](C(C)C)NC(=O)[C@H](CC(=O)O)NC(=O)[C@H](C(C)C)NC(=O)[C@H](CC(=O)O)NC1=O` [Compound 13a, *F.NMeF.NMeF.Y.Y.D.V.D.V.D.V.Y.NMeF.H.*C.G.K.K-NH2] ({CH2CO}-F[NMeF][NMeF]YYDVDVDVY[NMeF]HCGKK-NH2; thioether N-15) reads 0.1 nM; that for `CC(C)[C@@H]1NC(=O)[C@H](CC(=O)O)NC(=O)[C@H](Cc2ccc(O)cc2)NC(=O)[C@H](Cc2ccc(O)cc2)NC(=O)[C@H](C)NC(=O)[C@H](Cc2ccccc2)N(C)C(=O)[C@H](Cc2ccccc2)NC(=O)CSC[C@@H](C(=O)NCC(N)=O)NC(=O)[C@H](Cc2c[nH]cn2)NC(=O)[C@H](Cc2ccccc2)N(C)C(=O)[C@H](Cc2ccc(O)cc2)NC(=O)[C@H](C(C)C)NC(=O)[C@H](CC(=O)O)NC(=O)[C@H](C(C)C)NC(=O)[C@H](CC(=O)O)NC1=O` [Compound 18a, *F.NMeF.A.Y.Y.D.V.D.V.D.V.Y.NMeF.H.*C.G-NH2] ({CH2CO}-F[NMeF]AYYDVDVDVY[NMeF]HCG-NH2; thioether N-15), 68 nM.
